Literature values, collected in publication PMC2929769 (Toxicon : official journal of the International Society on …, 2010).

System: RTA
Settings: read-out: RTA IC50

Compound: Nc1nc(=O)c(CCCc2ccc(C(=O)O)cc2)c(O)[nH]1 [PBA, 4-[3-(2-amino-1,4-dihydro-6-hydroxy-4-oxo-5-pyrimidinyl)propyl]-benzoic acid]
- IC50: 270 µM
